Test results as given in patent publication US7235576B1, “Omega-carboxyaryl substituted diphenyl ureas as raf kinase inhibitors” (Bayer Pharmaceuticals Corporation, priority 2001, dated 2007).

melting point | Compound
228 to 230 °C | COC(=O)c1ccc(Oc2ccc(NC(=O)Nc3ccc(Cl)c(C(F)(F)F)c3)cc2)cn1 [Entry 55, N-(4-chloro-3-(trifluoromethyl)phenyl)-N′-(4-(2-(methoxycarbonyl)-5-pyridyloxy)phenyl)urea]
125 to 130 °C | CNC(=O)c1cc(Oc2ccc(NC(=O)Nc3ccc(Oc4ccnc(C(=O)NC)c4)cc3)cc2)ccn1 [Entry 103, bis(4-(2-(N-methylcarbamoyl)-4-pyridyloxy)phenyl)urea]
